Assay results published in patent US20230202980A1, “N-(2-Aminophenyl)-Prop-2-Enamide Derivatives, and Uses Thereof in the Treatment of Cancer” (National University of Singapore, priority 2019, published 2023).
pIC50: −log10 of the molar value. Values belong to the molecule of their own block, whether it stands above or below them.

Assays:
[1] = test system: SNU-398 (SALL4 high) cells; assay: SALL4 high/low phenotypic screen (cell viability, CellTiter-Glo), SALL4 high cells; format: cell-based; conditions: for pIC50: Homo sapiens, SNU-398, read-out: IC50 in high SALL4 SNU398 cells; for pIC50 / IC50 in high SALL4 SNU398 cells: SALL4 high/low phenotypic screen, 72 hrs; for fold less potent than the most active compounds: SALL4 high SNU398 cells
Experimental: (§1) SNU-387 empty vector, Tg:SALL4A, and Tg:SALL4B expressing isogenic cell lines were generated by transducing WT SNU-387 cells with empty vector, SALL4A or SALL4B FUW-Luc-mCh-puro lentiviral constructs^1. Cells were plated in 50 µl of RPMI culture media in 384-well white flat-bottom plates (Coming) and incubated at 37° C. in a humidified atmosphere of 5% CO2 overnight. Cell numbers per well were 1500 for SNU-398, and 750 for SNU-387 and SNU-387 isogenic lines. After overnight incubation, varying concentrations of compounds 1-80 were added to cells with multichannel electronic pipettes (Rainin). Cells were then incubated for 72 hrs at 37° C. in a humidified atmosphere of 5% CO2 before 10 µl of CellTiter-Glo reagent was added to the wells with the MultiFlo Microplate Dispenser (BioTek). Cells were incubated at room temperature for a mininuun of 10 minutes after which luminescence readings were recorded by an Infinite M1000 Microplate Reader (Tecan).
This testing was based on SALL4 high/low phenotypic screen as described herein. IC50 values noted for the compounds/groups above are based on ICso in high SALL4 SNU398 cells.
ALPHA assay measures binding between SALL4 and RBBp4, an inhibitor could block the binding and reflected in low reading of the ALPHA assay. FP assay also measures binding between SALL4 and RBBp4, an inhibitor results in […] reading. Cell-based assays are measuring cell viability with different concentration of compounds. Cell based 1299 refers to cell viability assay using H1299 cells; Cell-based SNU387 refers to cell viability assay using SNU387 cells; Cell based assay-SNU-398 refers to cell viability assay using SNU398 cells; Cell based MDA-MB231 refers to cell viability assay using MDA-MB231 cells.

[2] = test system: SNU-387 (SALL4 low) cells; assay: SALL4 high/low phenotypic screen (cell viability, CellTiter-Glo), SALL4 low cells; format: cell-based; conditions: Example 1, see FIG. 2
Experimental: as §1
ALPHA assay measures binding between SALL4 and RBBp4, an inhibitor could block the binding and reflected in low reading of the ALPHA assay. FP assay also measures binding between SALL4 and RBBp4, an inhibitor results in […] reading. Cell-based assays are measuring cell viability with different concentration of compounds. […]

SALL4 RNA = SALL4 RNA expression down regulation (Q-PCR) in H661 cells; format: cell-based; conditions: 48 hrs
Experimental: Cells were treated with compound 6 at 1 µM and 2.5 µM. Amounts for other cmpds are shown. Cells were harvested at 48 hrs and the cell lysates were subjected to western blot analysis and Q-PCR analysis for SALL4 protein and RNA level respectively. […] As shown in the lower panel of FIG. 6, using Q-PCR, it was shown that SALL4 RNA level was reduced by Compound 6 in H661 cells.

SALL4 1-300 protein = target: T1, SALL4 1-300 protein (Homo sapiens, UniProt Q9UJQ4); assay: Thermal Shift Assay (fluorescence-based binding assay); conditions: SALL4 1-300 with 100 mM compound
T1 sequence (Q9UJQ4 1-300): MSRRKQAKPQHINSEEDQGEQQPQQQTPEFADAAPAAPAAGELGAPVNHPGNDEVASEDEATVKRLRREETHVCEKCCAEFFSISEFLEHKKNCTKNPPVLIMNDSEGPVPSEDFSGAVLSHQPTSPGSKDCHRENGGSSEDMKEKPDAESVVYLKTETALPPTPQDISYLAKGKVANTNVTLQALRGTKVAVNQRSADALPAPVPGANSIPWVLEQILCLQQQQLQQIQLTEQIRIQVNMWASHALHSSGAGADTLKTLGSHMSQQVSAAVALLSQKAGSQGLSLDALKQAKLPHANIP
Excerpt: In the upper panel of FIG. 7, a fluorescence-based binding assay named Thermal Shift Assay was used to assess the binding of compound 6 to SALL4 1-300 protein based on changes in unfolding transition. […] In the lower panel of FIG. 7, compound 6 binding to SALL4 was accessed by 1H NMR Experiments and Saturation Transfer Difference (STD) using ^15N SALL4 1-300 and Compound 6. The samples were screened using Bruker BioSpin AVANCE II 600 MHz spectrometer equipped with a CPPTCI{ 19F} cryoprobe and SampleJet auto-sampler. Compound 6 weak binding event to SALL4 1-300 was identified based on the increase in transverse relaxation rate (R2) observed in the presence of SALL4 1-300 protein.

SALL4 high tumor = assay: In vivo xenotransplant testing in mice; conditions: treated mice, P<0.05
[3] = Pharmacokinetic study, whole blood concentration by LC-MS/MS; format: in vivo, Swiss albino mice
Experimental: Compound 6 was dissolved in water containing 3% DMSO and 10% hydroxyl propyl-b-cyclodextrin (EncapsinTM) for the i.v. dose, and in water containing 5% DMSO and 9.5% Encapsin for the oral dose. Blood samples were collected at 0.083, 0.25, 0.5, 1, 2, 4, 6, 8 and 24 hrs. The whole blood concentration was measured by LC-MS/MS. From the oral route, 90% of compound 6 was cleared at 2 hrs. For the intravenous route, 90% of compound 6 was cleared at 4 hrs.

[4] = Metabolic stability using liver microsomes; format: in vitro ADME; conditions: 1 µM, 3.33 mg/ml liver microsomes, 2.5 mM NADPH
Excerpt: (§2) Pan-HDAC binding assay measures HDAC inhibitory activity of a compound. Tubulin Polymerisation inhibition assays measure inhibition activity of a compound towards tubulin polymerization. SALL4 protein expression down regulation assay changed to western blot analysis, SALL4 RNA expression down regulation assay changed to real-time PCR assay. Permeability assay measures the (PAMPA) measures permeability of a compound across an artificial membrane. The microsomal stability assay measures rate of disappearance of a test compound over time in liver microsomes. In vivo PK assay measures biodistribution of the test compound in mice.
1 µM of compound 6 was incubated with 3.33 mg/ml liver microsomes and 2.5 mM NADPH for 0, 5, 10, 30 and 60 minutes. The mixture were subjected to LC-MS/MS to measure remaining compound after the incubation.

PAMPA permeability assay = format: in vitro ADME; conditions: 50 µM, pION buffer, 4 hours
Excerpt: as §2
50 µM of Compound 6 prepared in pION buffer was added to bottom of UV plate. GIT-0 solution was added and the solution was incubated for 4 hours. The plate spectrum was read using spectrophotometer in scanning mode from 200 nm to 500 nm using PAMPA pION software.

Structure (SMILES): COc1ccc(N)c(NC(=O)/C=C/c2cccnc2Nc2cc(OC)c(OC)c(OC)c2)c1
pIC50 [1]: 6.00 to 6.82

Structure (SMILES): COc1cc(Nc2ncccc2/C=C/C(=O)Nc2cc(C)ccc2N)cc(OC)c1OC
pIC50 [1]: 6.00 to 6.82

Structure (SMILES): COc1cc(Nc2ncccc2/C=C/C(=O)Nc2cc(Cl)c(Cl)cc2N)cc(OC)c1OC
pIC50 [1]: 6.00 to 6.82

Structure (SMILES): COc1cc(Nc2ncccc2/C=C/C(=O)Nc2ccc(Cl)cc2N)cc(OC)c1OC [Cmpd 6]
activity in high SALL4 cells ([1]; Example 1, see FIG. 2): sub-micromolar
selectivity between SALL4 low and SALL4 high cells (FIG. 2) ([1]; SALL4 high vs SALL4 low cells): excellent
EC50 / potency (FIG. 2) ([1]; cell-based screening, SALL4 high cells): excellent
low SALL4 cell inhibition, concentration [2]: high micromolar
SALL4 RNA level (Q-PCR) (SALL4 RNA): reduced
melting shift (SALL4 1-300 protein): 4.7 °C
xenograft size (SALL4 high tumor): significant (P<0.05) smaller
xenograft weight (SALL4 high tumor): significant (P<0.05) smaller
compound cleared from whole blood ([3]; intravenous 5 mg/kg, at 4 hrs): 90%
compound cleared from whole blood ([3]; oral 15 mg/kg, at 2 hrs): 90%
status in liver microsome assay (printed: permeability status) [4]: medium
metabolic stability in liver microsomes, %QH ([4]; 0-60 minutes): 45.88 %QH
permeability in PAMPA assay (PAMPA permeability assay): high

Structure (SMILES): COc1cc(Nc2ncccc2/C=C/C(=O)Nc2ccc(Cl)cc2N)cc(OC)c1OC [drawing 157]
pIC50 [1]: 6.00 to 6.82

Now from value to molecule, other results behind:

pIC50 [1]: ~5.70
Structure (SMILES): COc1ccc(Nc2ncccc2/C=C/C(=O)Nc2cc(C)ccc2N)cc1
fold less potent than the most active compounds [1]: about 10 fold

pIC50 [1]: ~4.60
Structure (SMILES): COc1ccc(N)c(NC(=O)/C=C/c2cccnc2Nc2ccc(C(F)(F)F)cc2)c1
fold less potent than the most active compounds [1]: about 100 fold

IC50 in high SALL4 SNU398 cells [1]: inactive
Structure (SMILES): Nc1ccc(F)cc1NC(=O)c1cccnc1Nc1ccc(F)cc1

IC50 in high SALL4 SNU398 cells [1]: inactive
Structure (SMILES): Nc1ccc(Cl)cc1NC(=O)c1cccnc1Nc1ccc(F)cc1
